Measurements taken from patent US8618283B2, “Ligand libraries for screening GPCRs” (Cambridge Enterprise Limited, priority 2005, dated 2013).

Test system: ET-A and/or ET-B receptor
Test: contraction of human aortic rings in organ culture (agonist assay)
Details: increasing concentrations 0.01 nM to 100 nM, at top concentration, 37° C.
Experimental: Endothelin-1 is a peptide which signals through the ET-A and/or ET-B receptor to cause vasoconstriction. To determine whether compounds of the invention are agonists at ET-A and/or ET-B, rings of human aorta (obtained from transplant donor hearts) can be put into organ culture. Rings are then exposed either to increasing concentrations of Endothelin-1 (from 0.01 nM to 100 nM), or to increasing concentrations of the test compound(s) (from about 0.1 nM to about 10 mM) at 37° C., raising the concentration of the appropriate agent approximately every 5 minutes. Throughout the experiment the contraction of the aortic ring is measured by a strain gauge designed and commercially available for such a purpose. […] If the compound of the invention is an agonist at the endothelin receptors, then the force exerted on the strain guage will also be higher (at least at certain concentrations) than prior to addition of the test compound.

Endothelin-1
force exerted on the strain gauge versus prior to addition: significantly higher
